Experimental data published in patent US7101878B1 (Agouron Pharmaceuticals, Inc., priority 1998, dated 2006).

Tests used:
[1] = Intact male rat, testosterone suppression; type: in vivo; conditions: male, Sprague-Dawley, rat, plasma, intramuscular; 100 mg/kg im*, 7 days; read-out: Range of Plasma Conc.
Description: Testosterone is a hormone regulated by the hypothalamic-pituitary-gonadal axis. GnRH is secreted in pulses from the hypothalamus and stimulates the anterior pituitary gland to release gonadotropic hormones LH and FSH. Testosterone is produced when the testes are stimulated by LH. The quantity of testosterone secreted increases approximately in direct proportion to the amount of LH available (Guyton, 1986).
Male Sprague-Dawley (250-275 g) rats were single-housed and allowed to acclimate for 1 week prior to study. On study day animals were dosed with vehicle or test compound by various routes of administration, including ip, sc, or po. Blood samples were obtained via cardiac puncture under halothane anesthesia from individual animals at predetermined time points post treatment. Blood samples were drawn into heparin containing tubes. Blood was centrifuged immediately, plasma collected and stored in −20° freezer until assayed. Plasma samples were analyzed using DSL-4000 ACTIVE Testosterone coated-tube raduioimmunoassay kit from Diagnostic Systems Laboratories, Inc.
Male Sprague-Dawley (250-275 g) rats were single-housed and allowed to acclimate for 1 week prior to study. We developed a technique to allow for repeated sampling from the jugular vein by using microrenathane (MRE) catheters implanted 7 days prior to study. Details of the surgical procedure have been described previously {Harms and Ojeda, 1974}. On study day, animals were allowed to acclimate to the procedure room while residing in their home cage. Basal blood samples were drawn from all animals. Immediately following basal sampling, vehicle or test compounds were administered by various routes. The routes of administration employed were intravenous (iv), intramuscular (im), and oral (po). Blood samples were drawn into heparin containing tubes at multiple time points post treatment. Blood was centrifuged immediately, plasma collected and stored in −20° freezer until assayed. Plasma samples were analyzed using DSL-4000 ACTIVE Testosterone coated-tube raduioimmunoassay kit from Diagnostic Systems Laboratories, Inc.
Male Sprague-Dawley (250-275 g) rats were double-housed and allowed to acclimate for 1 week prior to study. Daily vehicle treatments were administered either, im, sc, or po between 8:00 and 9:00 am for seven days. On day 8 between 8:00 and 9:00 am, blood samples were drawn via cardiac puncture under halothane anesthesia. The procedure was complete in 45-60 seconds. Over the next 7 days one groups of animals continued to receive vehicle treatments while another group of animals received no treatment. Samples were collected as described above following the 7th day of this treatment regimen. Testosterone levels were not different between vehicle treated animals and untreated animals.
Daily im dosing of Compound 134 (100 mg/kg) or vehicle was performed between 8:00 and 9:00 am for seven days. Samples were collected as described above following the 7th day of treatment.
All blood samples were collected in heparin containing tubes. Blood was centrifuged immediately, plasma collected and stored in −20° freezer until assayed the next day. Plasma samples were analyzed using DSL-4000 ACTIVE Testosterone coated-tube raduioimmunoassay kit from Diagnostic Systems Laboratories, Inc.

MAO-B = MAO-B (Homo sapiens, UniProt P27338); assay: Selectivity: MAO-B
N-type Ca2+ Channel = N-type Ca2+ Channel (Homo sapiens, UniProt Q00975); assay: Selectivity: N-type Ca2+ Channel
Chain of N-type Ca2+ Channel (Q00975 whole entry): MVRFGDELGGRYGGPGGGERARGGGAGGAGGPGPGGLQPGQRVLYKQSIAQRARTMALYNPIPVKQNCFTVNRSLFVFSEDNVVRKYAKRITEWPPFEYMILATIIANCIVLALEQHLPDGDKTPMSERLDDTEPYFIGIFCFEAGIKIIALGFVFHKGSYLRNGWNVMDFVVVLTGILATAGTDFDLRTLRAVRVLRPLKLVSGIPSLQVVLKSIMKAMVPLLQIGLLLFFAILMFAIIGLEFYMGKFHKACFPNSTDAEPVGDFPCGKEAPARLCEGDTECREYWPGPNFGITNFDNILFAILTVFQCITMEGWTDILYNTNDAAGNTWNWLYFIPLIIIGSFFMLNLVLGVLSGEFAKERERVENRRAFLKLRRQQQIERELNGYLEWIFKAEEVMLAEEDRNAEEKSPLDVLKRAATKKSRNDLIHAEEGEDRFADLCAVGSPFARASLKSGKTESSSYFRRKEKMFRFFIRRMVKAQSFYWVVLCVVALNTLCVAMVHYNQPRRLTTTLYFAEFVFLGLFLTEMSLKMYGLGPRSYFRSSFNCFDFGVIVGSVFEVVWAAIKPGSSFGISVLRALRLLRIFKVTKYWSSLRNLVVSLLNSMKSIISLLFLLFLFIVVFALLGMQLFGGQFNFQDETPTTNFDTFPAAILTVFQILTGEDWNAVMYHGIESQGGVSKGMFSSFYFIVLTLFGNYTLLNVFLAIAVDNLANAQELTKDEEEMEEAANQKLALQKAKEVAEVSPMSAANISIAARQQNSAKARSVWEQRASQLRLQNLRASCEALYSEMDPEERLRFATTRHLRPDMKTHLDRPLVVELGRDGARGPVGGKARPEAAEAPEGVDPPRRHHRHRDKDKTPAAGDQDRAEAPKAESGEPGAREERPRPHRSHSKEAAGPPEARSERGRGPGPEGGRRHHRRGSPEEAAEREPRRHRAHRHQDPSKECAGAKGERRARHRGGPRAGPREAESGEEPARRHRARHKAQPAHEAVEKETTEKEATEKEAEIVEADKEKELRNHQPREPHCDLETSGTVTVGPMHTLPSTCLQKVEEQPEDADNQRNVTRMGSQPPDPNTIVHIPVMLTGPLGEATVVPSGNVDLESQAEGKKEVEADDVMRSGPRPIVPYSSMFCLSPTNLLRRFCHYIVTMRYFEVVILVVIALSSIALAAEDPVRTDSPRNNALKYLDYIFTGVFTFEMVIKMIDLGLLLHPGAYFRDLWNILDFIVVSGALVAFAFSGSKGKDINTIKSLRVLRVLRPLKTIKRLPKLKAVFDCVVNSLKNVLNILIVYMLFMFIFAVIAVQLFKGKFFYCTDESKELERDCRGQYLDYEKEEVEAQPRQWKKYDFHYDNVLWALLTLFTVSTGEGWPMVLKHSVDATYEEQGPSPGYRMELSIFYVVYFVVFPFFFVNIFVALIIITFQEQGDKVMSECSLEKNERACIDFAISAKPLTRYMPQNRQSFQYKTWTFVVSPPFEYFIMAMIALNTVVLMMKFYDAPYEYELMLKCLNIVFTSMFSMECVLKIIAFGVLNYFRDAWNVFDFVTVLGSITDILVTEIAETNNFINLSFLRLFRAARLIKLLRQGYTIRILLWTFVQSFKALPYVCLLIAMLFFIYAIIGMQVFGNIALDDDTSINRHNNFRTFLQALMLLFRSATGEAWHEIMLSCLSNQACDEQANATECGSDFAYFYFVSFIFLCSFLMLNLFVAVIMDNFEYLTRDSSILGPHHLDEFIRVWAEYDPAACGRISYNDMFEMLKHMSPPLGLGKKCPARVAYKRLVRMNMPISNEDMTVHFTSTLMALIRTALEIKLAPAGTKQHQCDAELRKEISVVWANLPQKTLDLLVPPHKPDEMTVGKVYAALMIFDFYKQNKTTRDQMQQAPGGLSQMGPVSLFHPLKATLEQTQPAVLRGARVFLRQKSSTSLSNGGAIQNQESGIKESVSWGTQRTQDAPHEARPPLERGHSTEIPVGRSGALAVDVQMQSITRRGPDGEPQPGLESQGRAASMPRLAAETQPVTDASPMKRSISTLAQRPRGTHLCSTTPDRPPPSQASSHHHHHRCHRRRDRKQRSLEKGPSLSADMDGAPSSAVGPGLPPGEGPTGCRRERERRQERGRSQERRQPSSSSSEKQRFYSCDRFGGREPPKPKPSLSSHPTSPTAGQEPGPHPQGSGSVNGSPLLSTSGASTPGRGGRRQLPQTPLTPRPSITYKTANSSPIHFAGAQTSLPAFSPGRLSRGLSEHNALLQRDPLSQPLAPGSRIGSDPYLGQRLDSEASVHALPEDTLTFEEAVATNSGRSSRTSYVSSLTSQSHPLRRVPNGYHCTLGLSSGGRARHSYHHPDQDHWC

NK1 = NK1 (Homo sapiens, UniProt P25103); assay: biochemical
AT1 Angiotensin = AT1 Angiotensin (Homo sapiens, UniProt P30556); assay: biochemical
Chain of AT1 Angiotensin (P30556 whole entry): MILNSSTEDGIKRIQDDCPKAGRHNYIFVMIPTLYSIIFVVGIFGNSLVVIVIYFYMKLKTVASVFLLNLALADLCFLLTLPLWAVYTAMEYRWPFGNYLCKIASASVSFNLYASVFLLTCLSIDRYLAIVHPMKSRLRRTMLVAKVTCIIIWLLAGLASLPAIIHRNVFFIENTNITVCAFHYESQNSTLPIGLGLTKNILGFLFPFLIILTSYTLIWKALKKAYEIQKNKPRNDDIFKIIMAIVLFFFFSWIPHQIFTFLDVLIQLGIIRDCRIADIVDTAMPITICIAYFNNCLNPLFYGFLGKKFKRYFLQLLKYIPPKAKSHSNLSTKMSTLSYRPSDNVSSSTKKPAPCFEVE

LTB4 = LTB4 (Homo sapiens, UniProt Q15722); assay: biochemical
MAO-A = MAO-A (Homo sapiens, UniProt P21397); assay: Selectivity: MAO-A
Chain of MAO-A (P21397 whole entry, species assumed): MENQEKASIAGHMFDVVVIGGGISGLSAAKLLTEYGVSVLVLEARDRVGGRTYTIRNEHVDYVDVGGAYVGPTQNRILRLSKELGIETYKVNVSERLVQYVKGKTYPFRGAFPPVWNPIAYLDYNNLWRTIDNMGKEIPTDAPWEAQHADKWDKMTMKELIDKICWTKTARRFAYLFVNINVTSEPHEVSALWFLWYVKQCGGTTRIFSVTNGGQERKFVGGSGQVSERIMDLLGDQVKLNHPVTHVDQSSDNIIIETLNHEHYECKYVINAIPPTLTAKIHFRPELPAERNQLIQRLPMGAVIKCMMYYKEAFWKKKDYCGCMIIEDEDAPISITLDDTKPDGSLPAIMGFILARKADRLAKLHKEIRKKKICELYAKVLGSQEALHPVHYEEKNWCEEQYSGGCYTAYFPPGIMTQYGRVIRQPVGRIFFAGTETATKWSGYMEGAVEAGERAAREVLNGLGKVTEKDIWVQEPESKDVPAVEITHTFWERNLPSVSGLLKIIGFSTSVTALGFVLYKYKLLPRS

H3 Histamine = H3 Histamine (Homo sapiens, UniProt Q9Y5N1); assay: Selectivity: H3 Histamine
TRH = TRH (Homo sapiens, UniProt P34981); assay: biochemical
CYP3A4 Cytochrome P450 = CYP3A4 Cytochrome P450 (Homo sapiens, UniProt P08684)
Chain of CYP3A4 Cytochrome P450 (P08684 whole entry): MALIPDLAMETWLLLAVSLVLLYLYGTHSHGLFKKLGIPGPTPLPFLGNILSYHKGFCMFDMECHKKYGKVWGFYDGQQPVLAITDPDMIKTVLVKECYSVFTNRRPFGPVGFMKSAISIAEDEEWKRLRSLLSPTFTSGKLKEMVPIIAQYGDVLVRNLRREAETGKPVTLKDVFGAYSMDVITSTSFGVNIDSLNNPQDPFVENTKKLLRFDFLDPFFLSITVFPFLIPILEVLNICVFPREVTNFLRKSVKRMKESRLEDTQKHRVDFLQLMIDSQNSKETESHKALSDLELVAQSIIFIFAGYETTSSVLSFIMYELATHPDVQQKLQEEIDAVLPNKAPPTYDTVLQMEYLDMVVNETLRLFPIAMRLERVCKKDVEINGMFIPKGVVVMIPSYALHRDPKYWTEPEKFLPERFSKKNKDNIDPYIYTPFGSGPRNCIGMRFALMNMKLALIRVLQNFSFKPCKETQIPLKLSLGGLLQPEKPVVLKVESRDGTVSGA

M2 Muscarinic = M2 Muscarinic (Homo sapiens, UniProt P08172); assay: Selectivity: M2 Muscarinic
RXRα Retinoid = RXRα Retinoid (Homo sapiens, UniProt P19793); assay: biochemical
Chain of RXRα Retinoid (P19793 whole entry): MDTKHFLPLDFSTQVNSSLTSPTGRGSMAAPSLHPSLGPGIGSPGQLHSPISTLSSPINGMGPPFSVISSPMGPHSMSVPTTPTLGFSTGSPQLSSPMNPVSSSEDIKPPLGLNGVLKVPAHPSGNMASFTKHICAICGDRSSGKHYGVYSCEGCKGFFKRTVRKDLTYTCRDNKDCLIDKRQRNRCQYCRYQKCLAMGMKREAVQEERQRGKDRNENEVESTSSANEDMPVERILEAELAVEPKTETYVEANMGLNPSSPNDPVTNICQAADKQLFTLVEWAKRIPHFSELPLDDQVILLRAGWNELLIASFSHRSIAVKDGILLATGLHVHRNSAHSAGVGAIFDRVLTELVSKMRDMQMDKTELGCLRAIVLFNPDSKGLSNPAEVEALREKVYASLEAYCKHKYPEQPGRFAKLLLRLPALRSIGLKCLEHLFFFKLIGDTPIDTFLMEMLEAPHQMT

H2 Histamine = H2 Histamine (Homo sapiens, UniProt P25021); assay: Selectivity: H2 Histamine
Chain of H2 Histamine (P25021 whole entry): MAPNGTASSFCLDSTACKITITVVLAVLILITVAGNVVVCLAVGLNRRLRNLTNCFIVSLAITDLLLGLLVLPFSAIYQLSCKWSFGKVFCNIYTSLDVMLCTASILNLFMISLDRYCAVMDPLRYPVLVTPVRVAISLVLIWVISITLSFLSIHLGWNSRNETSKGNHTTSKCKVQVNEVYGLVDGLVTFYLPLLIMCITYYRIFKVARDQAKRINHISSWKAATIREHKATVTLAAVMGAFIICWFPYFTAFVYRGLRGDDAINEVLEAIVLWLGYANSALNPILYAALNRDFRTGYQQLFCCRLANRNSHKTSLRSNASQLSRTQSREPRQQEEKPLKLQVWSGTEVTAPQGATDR

Serotonin Transporter = Serotonin Transporter (Homo sapiens, UniProt P31645); assay: Selectivity: Serotonin Transporter
Oxytocin = Oxytocin (Homo sapiens, UniProt P30559); assay: biochemical
CCKA = CCKA (Homo sapiens, UniProt P32238); assay: biochemical
TXA2 = TXA2 (Homo sapiens, UniProt P21731); assay: biochemical
NK3 = NK3 (Homo sapiens, UniProt P29371); assay: biochemical
Chain of NK3 (P29371 whole entry): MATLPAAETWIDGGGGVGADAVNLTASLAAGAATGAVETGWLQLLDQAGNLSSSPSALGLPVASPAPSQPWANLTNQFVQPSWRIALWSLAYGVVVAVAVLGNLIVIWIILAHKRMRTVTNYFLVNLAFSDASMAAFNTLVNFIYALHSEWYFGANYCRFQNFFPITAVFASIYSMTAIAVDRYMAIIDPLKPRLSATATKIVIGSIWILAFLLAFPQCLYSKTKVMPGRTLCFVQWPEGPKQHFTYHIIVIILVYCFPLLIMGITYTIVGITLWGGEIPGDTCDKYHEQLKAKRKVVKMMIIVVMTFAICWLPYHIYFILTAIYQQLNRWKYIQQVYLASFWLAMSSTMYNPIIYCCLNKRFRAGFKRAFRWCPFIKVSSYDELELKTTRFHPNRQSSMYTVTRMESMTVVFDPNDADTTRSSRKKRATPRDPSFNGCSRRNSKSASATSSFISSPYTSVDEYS

ET-A = ET-A (Homo sapiens, UniProt P25101); assay: biochemical

| Structure (SMILES) | concentration at 7 days [1] | Ki (MAO-B) | Ki (N-type Ca2+ Channel) | Ki (NK1) | Ki (AT1 Angiotensin) | Ki (LTB4) | Ki (MAO-A) | Ki (H3 Histamine) | Ki (TRH) | IC50 (CYP3A4 Cytochrome P450) | Ki (M2 Muscarinic) | Ki (RXRα Retinoid) | Ki (H2 Histamine) | Ki (Serotonin Transporter) | Ki (Oxytocin) | Ki (CCKA) | Ki (TXA2) | Ki (NK3) | Ki (ET-A) |
| --- | --- | --- | --- | --- | --- | --- | --- | --- | --- | --- | --- | --- | --- | --- | --- | --- | --- | --- | --- |
| COc1cc(OC)c(NC(=O)c2ccc(Cc3cc4c(cc3C)C(C)(C)CCC4(C)C)o2)c(OC)c1 [Compound 134] | 1300 nM | – | – | – | – | – | – | – | – | – | – | – | – | – | – | – | – | – | – |
| COc1cccc(OC)c1NC(=O)c1ccc(Cc2cc3c(cc2C)C(C)(C)CCC3(C)C)o1 [Compound 20] | – | > 1 µM | > 1 µM | > 1 µM | 3 to 5 µM | > 1 µM | > 1 µM | > 1 µM | > 1 µM | 1.7 µM | > 1 µM | > 10 µM | ~1 µM | > 1 µM | > 1 µM | > 1 µM | > 1 µM | 1 to 5 µM | > 1 µM |
